Test system: SW480 colon cancer cells
Test: Label-free quantitative proteomic analysis
Format: cell-based, human
Details: twenty-four hours
Experimental: Proteomic analysis. SW480 cells were seeded at a density of 1×10^6 in 10 cm dishes and treated with dimethyl sulfoxide vehicle control or CB002-analog #4 for twenty-four hours. Floating cells were collected. Adherent cells were trypsinized. Cells were spun down and washed with phosphate-buffered saline. The pelleted cells were frozen and submitted for LC-MS/MS identification and comparative analysis at the Center for Cancer Research Development, Proteomics Core Facility at the Rhode Island Hospital. Samples (cell pellets) were lysed with a lysis buffer (8M urea, 1 mM sodium orthovanadate, 20 mM HEPES, 2.5 mM sodium pyrophosphate, 1 mM β-glycerophosphate, pH 8.0, twenty minutes, 4° C.) followed by sonication at 40% amplification by using a microtip sonicator (QSonica, LLC, Model no. Q55) and cleared by centrifugation (14,000×g, fifteen minutes, 15° C.). Protein concentration was measured (Pierce BCA Protein Assay, Thermo Fisher Scientific, Waltham, Mass., USA). A total of 100 μg of protein per sample was subjected to trypsin digestion. Tryptic peptides were desalted using C18 Sep-Pak plus cartridges (Waters, Milford, Mass., USA) and were lyophilized for forty-eight hours to dryness. […]
Sample preparation for LC-MS/MS analysis. […] Protein concentration was measured (Pierce BCA Protein Assay, Thermo Fisher Scientific) and 100 μg of protein per sample was subjected for trypsin digestion. […]

With `Cn1c(=O)c2[nH]c(Nc3cccc(C(F)(F)F)c3)nc2n(C)c1=O` [CB002-analog #4] the “CDK4, CKS1B, ERCC6L, MAPK3, and MAX protein abundance” value was “decreased”.

From US20230219957A1, “SMALL MOLECULE CB002-ANALOGES RESTORE THE P53 PATHWAY AND TARGET S-PHASE CHECKPOINT” (Brown University, priority 2020, published 2023)
